We go through two molecules from PMC12530851, “Design, synthesis, and apoptotic antiproliferative activity of novel dihydropyrimidine-5-carbonitrile/1,2,4-oxadiazole hybrids as dual EGFR/VEGFR-2 inhibitors endowed with antioxidant activity” (RSC Advances, 2025).

Structures are written as SMILES.

Broadly, the IC50 is the point on the concentration scale where inhibition reaches its midpoint. As a reminder, the viability is the share of living cells, or the viability signal relative to a control.

One data set has as its system MCF-7 (breast cancer). The data set is described as follows: Antiproliferative assay, MCF-7. Format: cell-based, human. As to conditions: for IC50: Homo sapiens, MCF7, MCF-7 breast cancer cells, read-out: Antiproliferative activity IC50 ± SEM, MCF-7. The source says: The dose–response experiments established the IC50 values for the new compounds. The given findings were obtained from at least two distinct studies, each comprising three repeats per concentration. Appendix A (SI File) provides experimental details.[38,39]
The MTT assay[43] was utilized to assess the antiproliferative effects of compounds 10a–l on four human cancer cell lines: HT-29 (colon cancer), Panc-1 (pancreatic cancer), A-549 (lung cancer), and MCF-7 (breast cancer). […]
4.2.2. Assay for antiproliferative effect
To explore the antiproliferative potential of compounds propidium iodide fluorescence assay was performed using different cell lines such as Panc-1 (pancreas cancer cell line), MCF-7 (breast cancer cell line), HT-29 (colon cancer cell line) and A-549 (epithelial cancer cell line), respectively. To calculate the total nuclear DNA, a fluorescent dye (propidium iodide, PI) is used which can attach to the DNA, thus offering a quick and precise technique. PI cannot pass through the cell membrane and its signal intensity can be considered as directly proportional to quantity of cellular DNA. Cells whose cell membranes are damaged or have changed permeability are counted as dead ones. The assay was performed by seeding the cells of different cell lines at a density of 3000-7500 cells/well (in 200μl medium) in culture plates followed by incubation for 24h at 37 °C in humidified 5%CO2/95% air atmospheric conditions. The medium was removed; the compounds were added to the plates at 10 μM concentrations (in 0.1% DMSO) in triplicates, followed by incubation for 48h. DMSO (0.1%) was used as control. After incubation, medium was removed followed by the addition of PI (25 μl, 50μg/mL in water/medium) to each well of the plates. At - 80 °C, the plates were allowed to freeze for 24 h, followed by thawing at 25 °C. A fluorometer (Polar-Star BMG Tech) was used to record the readings at excitation and emission wavelengths of 530 and 620 nm for each well. The percentage cytotoxicity of compounds was calculated using […]
Where ATC= Absorbance of treated cells and AC= Absorbance of control. Erlotinib was used as positive control in the assay. […]

Data set [1] is described as follows: Cell viability assay (MTT) on normal MCF-10A cells. To be noted: human, MCF-10A mammary gland epithelial cells (normal cell line), MCF-10A normal cells, four-day incubation. The format is cell-based. On the procedure:
The impact of novel compounds 10a–l on the viability of a normal human cell line, specifically human mammary gland epithelial cells (MCF-10A), was assessed to ascertain the safety of the newly synthesized compounds. The MTT test was employed to assess the cell viability of the novel compounds after a four-day incubation with MCF-10A cells.[29,37] Refer to Appendix A for more experimental details.
The effect of new compounds 10a–l on the viability of a normal human cell line, namely human mammary gland epithelial cells (MCF-10A), was evaluated to determine the safety of the newly synthesized compounds.
4.2. Biological evaluation
4.2.1 Cell Viability assay (MTT assay)
MTT assay was performed to investigate the effect of the synthesized compounds on mammary epithelial cells (MCF-10A). The cells were propagated in medium consisting of Ham's F-12 medium/ Dulbecco's modified Eagle's medium (DMEM) (1:1) supplemented with 10% foetal calf serum, 2 mM glutamine, insulin (10 μg/mL), hydrocortisone (500 ng/mL) and epidermal growth factor (20 ng/mL). Trypsin ethylenediamine tetra acetic acid (EDTA) was used to passage the cells after every 2-3 days. 96-well flat-bottomed cell culture plates were used to seed the cells at a density of 10^4 cells mL-1. The medium was aspirated from all the wells of culture plates after 24 h followed by the addition of synthesized compounds (in 200 μL medium to yield a final concentration of 0.1% (v/v) dimethyl sulfoxide) into individual wells of the plates. Four wells were designated to a single compound. The plates were allowed to incubate at 37°C for 96 h. Afterwards, the medium was aspirated and 3-[4,5-dimethylthiazol-2-yl]-2,5-diphenyltetrazolium bromide (MTT) (0.4 mg/mL) in medium was added to each well and subsequently incubated for 3 h. The medium was aspirated and 150 μL dimethyl sulfoxide (DMSO) was added to each well. The plates were vortexed followed by the measurement of absorbance at 540 nm on a microplate reader. […]

In a further data set the target is VEGFR-2 (Homo sapiens, UniProt P35968). The data set is described as follows: VEGFR-2 inhibitory assay.
Sequence of VEGFR-2 (P35968 20-1356): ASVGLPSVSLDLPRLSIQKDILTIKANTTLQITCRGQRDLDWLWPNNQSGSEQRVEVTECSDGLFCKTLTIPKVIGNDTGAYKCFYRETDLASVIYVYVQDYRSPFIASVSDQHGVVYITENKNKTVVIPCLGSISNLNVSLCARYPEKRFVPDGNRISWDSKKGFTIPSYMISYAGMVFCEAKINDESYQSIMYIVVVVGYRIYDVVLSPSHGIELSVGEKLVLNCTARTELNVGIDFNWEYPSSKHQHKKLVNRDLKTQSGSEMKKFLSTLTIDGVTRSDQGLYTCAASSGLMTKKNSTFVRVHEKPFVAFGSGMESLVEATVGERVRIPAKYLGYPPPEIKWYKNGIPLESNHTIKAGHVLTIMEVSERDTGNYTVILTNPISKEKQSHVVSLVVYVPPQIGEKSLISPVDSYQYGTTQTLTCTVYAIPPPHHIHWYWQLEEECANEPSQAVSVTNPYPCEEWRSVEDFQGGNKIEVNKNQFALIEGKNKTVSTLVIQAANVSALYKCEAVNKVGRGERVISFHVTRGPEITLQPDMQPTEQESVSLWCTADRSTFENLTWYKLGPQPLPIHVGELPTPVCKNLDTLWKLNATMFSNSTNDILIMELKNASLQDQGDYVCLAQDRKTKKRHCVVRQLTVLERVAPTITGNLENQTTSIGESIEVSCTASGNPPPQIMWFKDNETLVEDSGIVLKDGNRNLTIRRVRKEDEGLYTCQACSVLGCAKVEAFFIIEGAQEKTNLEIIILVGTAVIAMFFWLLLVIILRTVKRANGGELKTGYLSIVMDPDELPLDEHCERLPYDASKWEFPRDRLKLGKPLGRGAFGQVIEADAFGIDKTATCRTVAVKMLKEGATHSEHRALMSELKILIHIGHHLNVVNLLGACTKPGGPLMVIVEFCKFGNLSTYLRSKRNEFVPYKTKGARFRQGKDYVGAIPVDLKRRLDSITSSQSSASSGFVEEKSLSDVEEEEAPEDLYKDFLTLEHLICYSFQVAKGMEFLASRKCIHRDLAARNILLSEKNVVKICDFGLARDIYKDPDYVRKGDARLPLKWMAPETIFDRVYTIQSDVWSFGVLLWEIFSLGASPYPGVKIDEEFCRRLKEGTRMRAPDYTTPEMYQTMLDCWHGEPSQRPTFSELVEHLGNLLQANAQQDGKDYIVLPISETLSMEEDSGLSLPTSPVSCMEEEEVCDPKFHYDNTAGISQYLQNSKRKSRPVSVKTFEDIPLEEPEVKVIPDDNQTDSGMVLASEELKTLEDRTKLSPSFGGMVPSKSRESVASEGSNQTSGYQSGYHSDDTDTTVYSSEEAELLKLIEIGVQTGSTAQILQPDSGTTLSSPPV

Procedure for VEGFR-2: The majority of signals detected by antiphosphotyrosine antibody were from EGFR because the enzyme preparation contained low impurities.
Prepare all the solutions using autoclaved, deionized water and analytical grade reagents. Prepare
and store all the reagents at room temperature (unless indicated otherwise). EDTA solution (0.5
M, pH 8.0): add 95 mL ultra-pure water to 14.612 g EDTA, adjust the pH to 8.0 using NaOH
solution, add 5 mL ultra-pure water; 1×Kinase Assay Buffer: add 25 mL HEPES solution (1 M),
water, adjust pH to 7.5 and constant volume to 500 mL using ultrapure water; 4×Stop solution (40
mM): Mix 0.8 mL of the foregoing EDTA solution, 1 mL 10×Detection Buffer and 8.2 mL ultra-
pure water; 1×Detection Buffer: Mix 1 mL 10×Detection Buffer with 9 mL water; 4×VEGFR
μM) was added to 624 μL 1×Kinase Assay Buffer and mixed; 4×ULight™-labeled JAK1
concentration 5 μM) was added to 576 μL 1×Kinase Assay Buffer and mixed; 4×ATP Solution
2×substrate/ATP Mix: 560 μL foregoing 4×ULight™-labeled JAK1 and 560 μL 4×ATP solution
and mixed (prepared before use). The assays used an ULight-labeled peptide substrate and a
Europium-W1024-labeled antiphosphotyrosine antibody. The VEGFR-2 was purchased from
Carna Biosciences, Inc. (New York, USA). The 384-well plates were obtained from PerkinElmer.
Compounds were dissolved in DMSO and diluted to 11 concentrations at a tripling rate from 2.500
5 μL 2×VEGFR-2 kinase solution (0.5 nM)
was added to 384-well plates homogeneous mixing and pre-reaction at room temperature for 30
min. Next, 2.5 μL 4×Ultra ULightTM-JAK-1(Tyr1023) Peptide (200 nM)/ATP (40 μM) was
added to the corresponding wells of a 384-well plate. Negative control: 2.5 μL/well 4×substrate/ATP mixture and 7.5 μL 1×kinase assay buffer in 384-well plate well. Positive control:
μL/well 2×VEGFR-2 kinase solution was added to the 384-well plate, The final concentration of DMSO in the mixing system was 4%. After incubation at room temperature and dark for 60 min, 5 μL 4×stop solution was added to corresponding wells to react for 5 min and then 5 μL 4×detection mix was added to the corresponding wells of a 384-well plate. The mixture was centrifugally mixed and stayed for 60 min at room temperature for color development. The plate
was read using an Envision plate reader. The inhibition rate (%) = (positive well reading-
compound well reading)/(positive well reading-negative well reading)×100. The corresponding IC50 values were calculated using GraphPad Prism 5.0.

Consider `COc1ccc(-c2noc(CSc3nc(-c4ccc(OC)cc4)c(C#N)c(=O)[nH]3)n2)cc1` [Compound 10l, 2-(((3-(4-Methoxyphenyl)-1,2,4-oxadiazol-5-yl)methyl)thio)-4-(4-methoxyphenyl)-6-oxo-1,6-dihydropyrimidine-5-carbonitrile], for which the figures for the IC50 with MCF-7 (breast cancer) and against VEGFR-2 were 22 ± 1 nM and 26 ± 1 nM, respectively. In data set [1], this molecule displayed a viability at 96 h, 50 µM of 91%.

With `COc1ccc(-c2nc(SCc3nc(-c4ccc(Cl)cc4)no3)[nH]c(=O)c2C#N)cc1` [Compound 10k, 2-(((3-(4-Chlorophenyl)-1,2,4-oxadiazol-5-yl)methyl)thio)-4-(4-methoxyphenyl)-6-oxo-1,6-dihydropyrimidine-5-carbonitrile], the IC50 was found to be 20 ± 1 nM in the data set with MCF-7 (breast cancer) and 21 ± 1 nM against VEGFR-2. In the data set on MCF-7 (breast cancer) (more potent than erlotinib), the “Potency relative to erlotinib, MCF-7” value is “twice as potent”. The viability at 96 h, 50 µM in data set [1] is 90%.
